For test [1], the system named is Nucleic Acid. Put plainly: Binding affinity to polyG-polyC double stranded RNA by thermal denaturation assay. The class given is nucleic-acid assay.
Test [2] in a line: Binding affinity to polydA-polydT DNA by thermal denaturation assay.
A further test has as its system DNA. Kind of test: Binding affinity to calf thymus DNA by thermal denaturation assay. It is filed as nucleic-acid assay. The note with it: Bos taurus.
Test [3] deals with Nucleic Acid. Put plainly: Binding affinity to polyA-polyU double stranded RNA by thermal denaturation assay. It is filed as nucleic-acid assay.

Results on one molecule are retold here after ChEMBL document CHEMBL1145599, “A novel pyrene-guanidiniocarbonyl-pyrrole cation efficiently differentiates between ds-DNA and ds-RNA by two independent, sensitive spectroscopic methods” (Bioorg Med Chem Lett, 2008).

Broadly, the ΔTm is the change in melting temperature against a reference sample. With `N=C(N)NC(=O)c1ccc(C(=O)NCCCCNC(=O)c2ccc3ccc4cccc5ccc2c3c45)[nH]1`, the log K (in the test with Nucleic Acid [1]; in test [2]; with DNA; in the test with Nucleic Acid [3]) was 5.1 in each case. For the same molecule, the shift in melting temperature (ΔTm) is 7.3 °C in the test on DNA and -1.5 °C in the test with Nucleic Acid [3].
